Results: patent US12123030B2, “Polynucleotides encoding lipoprotein lipase for the treatment of hyperlipidemia” (ModernaTX, Inc., priority 2016, dated 2024)

Tests used:
IP-10 = assay: Cytokine expression after nanoparticle compositions: IP-10; assay type: in vivo; details: 6 h; nanoparticle composition including the compound
adult rat = assay: Dose range finding (DRF) study in adult rat; assay type: in vivo; details: one month, one dose per week (5 total doses)
Description: (§1) Dose range finding (DRF) studies using surrogate Compound 18 are in progress to further examine the Compound 18 programs. One month of a DRF study, consisting of one dose per week (5 total doses) in adult rat was performed in order to measure hematology, clinical chemistry, and full pathology. […] Additionally, one month of GLP dose studies, consisting of five doses (one per week) via IV infusion will be administered to rats in order to examine safety pharmacology measures, including central nervous system (rats) and cardiovascular system (monkeys), such as heart rate, blood pressure, and EKG readings. Furthermore, gene toxicity studies were be undertaken, in vitro, using a 4 strain Ames test, and in vitro micronucleous hPBMCs. […] An in vivo mouse micronucleus assay will also be performed to further investigate the Compound 18/5-methoxy uridine (mo5U) modification chemistry.

4 strain Ames test = assay: 4 strain Ames test; assay type: cell-based; details: in vitro
Description: as §1

IL-6 = assay: Cytokine expression after nanoparticle compositions: IL-6; assay type: in vivo; details: 6 h; nanoparticle composition including the compound
hEPO = hEPO expression from nanoparticle compositions; assay type: in vivo; details: for hEPO expression: nanoparticle composition including the compound; for Average hEPO concentration: Table 9
triglycerides = details: existing hyperlipidemia treatment, patients; cited from earlier work
[1] = system: triglycerides in HTG patients; details: existing HTG treatments; cited from earlier work
ffluc = assay: Average total flux (ffluc) from nanoparticle compositions; assay type: in vivo; details: 6 h

SMILES	Cytokine expression IP-10 (IP-10) [pg/mL]	adverse events (adult rat)	clinical chemistry (adult rat)	mutagenic potential (Ames data) (4 strain Ames test)	Cytokine expression IL-6 (IL-6) [pg/mL]	hEPO expression (hEPO; 3 h) [pg/mL]	Average hEPO concentration (hEPO; 6 h) [pg/mL]	hEPO expression (hEPO; 24 h) [pg/mL]	reduction in triglycerides (triglycerides)	reduction in triglycerides [1]	Average total flux (ffluc)	hEPO expression (hEPO; 6 h) [pg/mL]
CCCCCCCCCOC(=O)CCCCCCCN(CCO)CCCCCCCC(=O)OC(CCCCCCCC)CCCCCCCC [Compound 18, Heptadecan-9-yl 8-((2-hydroxyethyl)(8-(nonyloxy)-8-oxooctyl)amino) octanoate]	299.93	No adverse events were reported	normal	does not have mutagenic potential	10.16	3e+06	3.38e+06	1.8e+06				
O=C(O)c1cccnc1 [Nicotinic acid]									15-25%	15-25%		
CCCCC/C=C\C/C=C\CCCCCCCCN(CCO)CCCCCCCC(=O)OC(CCCCCCCC)CCCCCCCC [Compound 6]	116.66				10.15						7.60 × 10^9	
CCCCC/C=C\C/C=C\CCCCCCCCC(CCCCCCCC/C=C\C/C=C\CCCCC)OC(=O)CCCN(C)C [MC3]	117.94				19.85	1.57e+06	1.83e+06	810000			6.59 × 10^9	1.83e+06
